In assay [1] the test system is swine model of myocardial ischemia. The note with it: 0.3 mg/kg i.v. at 15 min of ischemia. The text has this: Cardiac rhythm, arterial oxymetry, and arterial pressure were continuously monitored during the procedure. Just before starting the procedure a perfusion of amiodarone and lidocaine was initiated as prophylaxis for malignant left ventricular arrhythmias. All animals of the study were subjected to the same antiarrhythmic pharmacological approach allowing a direct comparison between the groups. By percutaneous approach and fluoroscopy guidance ischemia was induced by complete coronary balloon occlusion of the mid-left anterior descending coronary artery. Contrast angiographies were performed to ensure total coronary occlusion.
Control animals were given intravenous placebo (saline) at 15 min of ischemia. Blood samples (serum) for further assessment of biomarkers of cardiac damage were taken at baseline (i.e. before MI induction or at time=0 min), and at 30 min, 60 min and 90 min after MI induction (ischemia).
Upon taking the 90 min blood sample, the pigs were sacrificed without reperfusion to obtain myocardial tissue for molecular studies and histology.
The concentration of IMA (Ischemic Modified Albumin), CFABP (Cardiac Fatty Acid Binding Protein) and Myoglobin was determined by the respective pig ELISA kits in the blood samples taken 30 min, 60 min and 90 min after MI induction and compared to their baseline values (prior to ischemia induction). These proteins were chosen based on the rationale that they are early markers for cardiac damage assessment due to ischemia.

In a further assay the test system is RhoA. In words: RhoA total and cytosolic/membrane fractions in ischemic myocardium by Western blot. The assay is classed as in vivo, pigs. On the procedure: After the ischemic period, the animals' hearts were arrested with potassium chloride and rapidly excised. […] In addition, the separation of the membrane and cytosolic fractions was performed by a modification of the lysis buffer protocol. Briefly, tissue powder was homogenized (1 mol/L NaCl, 20 mmol/L Tris pH 7.4, 1 mmol/L DTT and protease inhibitors) and centrifuged. The supernatant was collected (referred to as the cytosolic fraction) and pellets were resuspended, and the membrane proteins were extracted by incubation in 500 mmol/L Tris-HCl pH 7.4, 20% sodium dodecyl sulfate, 100 mmol/L sodium orthovanadate, and protease inhibitors. The extract was centrifuged and the supernatant was collected as the membrane fraction.
Protein concentration (in total myocardial tissue, in the cytoplasm fraction and in the membrane fraction) was quantified by the Pierce method. RhoA (Santa Cruz) was determined in total and cytosolic and membrane fractions of the ischemic cardiac tissue of all animals by Western Blot analysis. The intensity of the Western blot bands was detected with Chemi-Doc (Bio-Rad) and they were quantified with the Quantity one Software (Bio-Rad). Intensities are expressed in arbitrary units (AU).
(In western blotting, separated proteins are transferred to a membrane and probed.)

The test system of assay [2] is mouse model for myocardial ischemia. Nature of the assay: Mouse model of myocardial ischemia by coronary ligation: infarct size and 8-OH-dG oxidative damage. The assay is classed as in vivo, Male CH3 mice. The note with it: single i.p. dose 15 min after coronary ligation; 45 min ischemia; vs vehicle-control. On the procedure: Complete LAD coronary artery ligation was performed as follows. Male CH3 mice (8-10 weeks old, weighing 25-30 g) were intubated and anesthesized with a mixture of O2/isoflurane and mechanically ventilated (rate 90 breaths/min, tidal volume 0.1 mL). Rectal temperature was continuously monitored throughout the surgery and maintained within 37-38° C. using a heat pad and heat lamp. An anterior thoracotomy was performed; the heart was exposed and the LAD coronary artery was occluded with an intramural stitch (7-0 silk suture; consistent ligation of the left coronary artery as it emerges from under the left atrium) for 45 minutes. Success of complete coronary ligation was verified by electrocardiographic visualization of the ST-elevation-MI pattern that was monitored by high frequency ultrasounds with the Vevo2100 from Visualsonics and by the visualization of a pale, hypokinetic ventricle distal to the site of occlusion.
Ischemia was continued for another 30 min after administration of the single dose (i.e. altogether 45 min of ischemia), then mice were sacrificed and the heart was carefully excised for infarct size analysis.
Infarct size was determined by morphometric analysis. For this purpose, all mouse hearts were immersed in fixative solution (4% paraformaldehyde), embedded in OCT compound and cross-sectioned from apex to base (10 μm thick sections 200 μm distanced). Sections were stained with haematoxylin and eosin and morphometric infarct size analysis was determined using image analysis software (ImageJ, NIH). Infarct size was calculated by the sum of myocardial infarct areas between sections and expressed as a percentage of total LV wall. Three measurements per section were determined.
In addition, myocardial oxidative damage was also assessed. For this purpose, ischemic myocardial tissue was cut into 5-μm-thick slices for 8-OH-dG (Abcam ab48508) staining, a measurement indicative of oxidative stress-induced DNA-damage. Staining was calculated by a single blinded observer from an average of 5-fields/animal as % of stained area. Images were captured by Nikon Eclipse 80i microscope and digitized by Retiga 1300i Fast camera.

In a further assay the test system is eNOS. Nature of the assay: eNOS activation (P-eNOS Ser1177 / total eNOS) in pig myocardium by Western blot. The settings on record: ischemic myocardium. The assay is classed as in vivo, pigs. The text has this: (P-eNOS) or activated eNOS.
Another assay relates to caspase-3. In words: Caspase-3 activation (cleaved / total caspase-3) in pig myocardium by Western blot. The assay is classed as in vivo, pigs. The protocol: Myocardial tissue of all pigs included in Example 1 and Example 2 was obtained, pulverized and processed with lysis buffer for protein isolation as detailed in Example 6. Protein was quantified by the Pierce method and Western Blot analysis was performed to assess the levels of phosphorylated p53 (Ser15), total p53, cleaved caspase-3 and total caspase-3. The ratios phosphorylated p53/total p53 and cleaved Casp3/total caspase3 were calculated to ascertain how much of protein was activated.

Assay [3] deals with hypercholesterolemic pigs with myocardial ischemia. In words: Hypercholesterolemic pigs, 90 min LAD balloon occlusion: early cardiac damage markers. The assay is classed as in vivo. The note with it: 0.3 mg/kg i.v. at 15 min of ischemia. The protocol: To this end, 14 pigs were fed for 10 days a Western-type hypercholesterolemic diet [20%-saturated fat (beef tallow), 2%-cholesterol, 1%-cholic acid]. This hyperlipidemic diet contains 24.82% proteins, 64.20%of carbohydrates, 10.98% of fats and 16,834.7 kJ.
After this 10 day diet period animals underwent a closed-chest 90 min mid-left anterior descending (LAD) coronary balloon occlusion and the same experimental design described in Example 1.

Another assay has as its system AMPK. In words: AMPK activation (P-AMPK Thr172 / total AMPK) in pig myocardium by Western blot. The settings on record: for levels of P-AMPK: vs controls.
The mark [4] stands for this setting: 30, 60 and 90 min after MI induction, vs controls.
The mark [5] stands for this setting: 90 min ischemic period, vs absence of treatment.

SMILES strings stand for the structures.

`CC(C)c1c(C(=O)Nc2ccccc2)c(-c2ccccc2)c(-c2ccc(F)cc2)n1CC[C@@H](O)C[C@@H](O)CC(=O)O` [atorvastatin]: in assay [1] (setting [4]), the “IMA (Ischemic Modified Albumin) blood levels” value was “significantly reduced” and the Myoglobin blood levels result is given as “significantly reduced”. In addition, in assay [1] (setting [5]), the “overall reduction of CFABP levels” value is “more than 75%”, the “overall reduction of IMA levels” value is recorded as “more than 50%” and the “overall reduction of myoglobin levels” value is given as “more than 75%”. Also, in the assay with RhoA (0.3 mg/kg i.v. at 15 min of ischemia, tissue at 90 min), the “total amount of RhoA protein in the ischemic myocardium” value is reported as “not affected”. Besides, the “RhoA activation in the ischemic myocardium” value with RhoA (single dose after the onset of ischemia, infarcted pigs) is on record as “inhibits”. Moreover, the “reduction of size of infarction (% of total LV wall)” value in assay [2] is on record as “around 50%”. The “ischemia-induced eNOS activation (P-eNOS/eNOS)” value in the assay with eNOS was “did not further enhance”. In the assay with caspase-3 (ischemic myocardium), the “levels of cleaved (active) caspase 3” value is recorded as “reduced”. The “total caspase-3” value with caspase-3 (myocardium) was “no changes”. For the same compound, in assay [3] (already at 30 min), the CFABP result is recorded as “significant reduction”, the IMA entry is given as “significant reduction” and the Myoglobin result was “significant reduction”. For the same compound, in assay [3] (vs control), the “Percentage of reduction of CFABP” value was 60-75%, the “Percentage of reduction of IMA” value is listed as 60-75% and the “Percentage of reduction of Myoglobin” value was 60-75%. Further, in the assay on AMPK (entire heart), the “total protein content of AMPK” value is “No changes”. Besides, the “levels of P-AMPK” value with AMPK (ischemic myocardium) was “significantly increased”. In addition, the “levels of P-AMPK” value in the assay with AMPK (non-ischemic cardiac tissue) is listed as “No changes”.

The values above are taken from patent US20200030288A1, “STATIN FOR PREVENTION/REDUCTION OF ISCHEMIA-RELATED DAMAGE” (Fundacio Institut De Recerca De L'Hospial De La Santa Creu …, priority 2017, published 2020).
